Source: patent US11246874B1, “Treatment of COVID-19” (Oxygen Biotech LLC, priority 2021, dated 2022)

Columns and labels:
Type in all cases: cell-based
[1] = system: SARS-CoV-2 virus, strain S-007; test: Infection of Vero cells with SARS-CoV-2; viral RNA (E-gene) in supernatant by 1-step RT-qPCR; conditions: bazedoxifene 10 μM in DMSO, 2 days of culture
Protocol: 0.15×10^6/ml Vero cells were infected with SARS-CoV-2 virus, an isolate from the environment, strain designated as S-007, provided by the Těchonin Biological Protection Department. Vero cells were then incubated in Dulbecco's Modified Eagle's Medium (DMEM) with 2% fetal bovine serum (FBS), DMSO 1 μl/ml, or in culture medium with bazedoxifene 10 […] in DMSO dosed from a starting stock solution of 10 mM bazedoxifene in DMSO, corresponding to a bazedoxifene concentration of […]. After 2 days of culture, the virus was quantified in the cell supernatant as follows.
Viral RNA was detected by 1-step RT-qPCR. Total RNA was isolated from 200 μl of supernatant of SARS-CoV-2 infected cells using magnetic beads. SARS-CoV-2 RNA was determined by amplifying the SARS-CoV-2 E-gene (Generi Biotech) using the SensiFast Probe One-Step Kit (BioLine) and Light Cycler 480 II (Roche). Viral RNA was quantified absolutely using a calibration curve.

[2] = system: Vero-E6 cells (ATCC CRL-1586); test: Cytotoxicity in Vero-E6 cell culture (Cell Counting Kit-8); conditions: 48 h incubation, range 0-15.2 μg/μl
Protocol: The toxicity of the test substance was measured in a culture of Vero-E6 cells (ATCC CRL-1586). Cells were cultured in a 96-well microtiter plate (2×10^4 cells per well) for 24 h at 37° C. and 5% CO2. Then, the test substance was added to the cells in a concentration range of 0-15.2 μg/μ1, and the thus treated cells were subsequently incubated for another 48 h. The viability of the cells was then determined using the Cell Counting Kit-8 kit (Dojindo Molecular Technologies, Munich, Germany), exactly according to the manufacturer's instructions. Results are depicted in FIG. 1. The maximum non-toxic concentration of test substance in Vero-E6 cell culture was 3.8 μg/μl.

[3] = system: SARS-CoV-2 virus (strain SARS-CoV-2/human/Czech Republic/951/2020); test: Antiviral testing in Vero-E6 cells, virus titer by plaque titration; conditions: Vero-E6, 3.8 μg/μl, MOI 0.1, 48 h
Protocol: Confluent culture of Vero-E6 cells (ATCC CRL-1586) was used to test for antiviral activity. Cells were cultured in a 96-well microtiter plate (2×10^4 cells per well) for 24 h at 37° C. and 5% CO2. The culture medium was then aspirated and replaced with fresh medium containing the test substance in a concentration range of 0-3.8 μg/μl. At the same time, the cells were infected with the SARS-CoV-2 virus (strain SARS-CoV-2/human/Czech Republic/951/2020) at a multiplicity of infection of 0.1. The thus treated and infected cells were incubated for 48 h at 37° C. and 5% CO2. The medium was then aspirated from the culture wells and the virus titer was determined by plaque titration (Stefanik et al., Microorganisms 2021, 9 (3), 471; https://doi.org/10.3390/microorganisms9030471).
Results are depicted in FIG. 2.

Substance: bazedoxifene
- % of DMSO ([1]; E-gene copies): 0.17%
- Fold decrease compared to DMSO ([1]; E-gene copies): 578.09
- E-gene No. of copies of the gene/ml ([1]; cell supernatant): 5.39 × 10^7 copies of the gene/ml
- maximum non-toxic concentration [2]: 3.8 µg/µL
- decrease of titer in the treated group ([3]; versus control group): approximately 1 log10 pfu/ml
- mean virus titer ([3]; control group 7.4 log10 pfu/ml): 6.3 log10 pfu/ml
